The values that follow come from patent publication US20140288040A1, “SUBSTITUTED BENZYLAMINE COMPOUNDS, THEIR USE IN MEDICINE, AND IN PARTICULAR THE TREATMENT OF HEPATITIS C VIRUS (HCV) INFECTION” (ASTEX THERAPEUTICS LIMITED, priority 2011, published 2014).

The target in assay [1] is T1, HCV NS3 protease (full length NS34a) (Hepatitis C virus genotype 1b, UniProt P26663).
T1 construct: The protease activity of the full length NS34a was measured using a FRET-based assay; made in house
The assay is described as follows: HCV NS3 protease assay (FRET, full length NS34a). The class given is biochemical. In a few lines:
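Full-length NS34a incubated with compound and an NS4AB cleavage-site FRET peptide (QXL520 quencher, 5-FAMsp fluorophore) in 50 mM Tris pH8, 20 mM DTT, 1% CHAPS, 10% glycerol, 5% DMSO. Fluorescence followed for 30 minutes at room temperature; IC50 from initial rates of replicate progress curves.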

Assay [2] relates to HCV subgenomic replicon in Huh-7 cells. Nature of the assay: Replicon assay, EC50 luciferase readout. It counts as cell-based, hepatitis C virus (HCV). How it is done:
The activities of compounds of the invention against HCV in a cellular environment were analysed using a replicon assay as described below.
Thus, Huh-7 cells persistently infected with an HCV-RNA construct (Bartenschlager, R. Hepatitis C replicons: potential role for drug development. Nature Rev. Drug Discov. 1, 911-916 (2002)) comprising: 5′ and 3′ non-translated regions (NTR); the non-structural genes NS3 to NS5b; as well as the G418 drug resistance gene, neomycin, (for selection of cells carrying HCV replicon RNA) fused to the firefly Luciferase reporter gene (pFK13889luc-ubi-neoNS3-3′ET), were used to determine the cell based antiviral activity of compounds using luciferase activity as an indirect readout of HCV RNA load. In this assay […] huh-7 cells persistently infected with the HCV subgenomic replicon construct above were platedwell in a 96 well tissue culture plate. The cells were allowed to attach overnight in DMEM medium supplemented with 10% FBS 1% NEAA, and 250 μgml gentamicin. The following day the medium was replaced with 200 μlwell of fresh medium as described above lacking gentamicin. […] Plates were then incubated at 37° C. in an atmosphere of 5% CO2 and air for 72 h. […] The plate was then read at 535 nm (excitation) and 590 nm (emission) on a SpectraMax Gemini reader (Molecular Devices) to determine the number of viable cells by measuring the conversion of rezasurin (Alamar blue) to resorufin in response to mitochondrial activity. In order to determine the antiviral effect of these compounds EC50 values were determined by measuring the luciferase activity of the cells. Alamar blue solution was removed from the wells and replaced with 100 μlwell of medium along with 100 μlwell of Bright-Glo reagent and incubated at room temperature for 5 minutes before transferring 100 μlwell to a white bottom 96 well plate to read in a luminometer as described in the Bright-Glo Luciferase Assay System protocol (promega).
(In general: In antiviral work, replicon cells carry a viral genome segment that copies itself.)

Setting [3] is: protease activity of full length NS34a, FRET peptide substrate, read-out: Activity IC50.
The mark [4] stands for this setting: Hepatitis C virus, Huh-7, 72 h, Huh-7 replicon cells, 72 h, single value, or second value of a pair x:y, read-out: Activity EC50 (μM) (EC50 luciferase readout).
The mark [5] stands for this setting: IC50 values of 10-150 μM against the protease activity of the full length NS34a, or at least 40% inhibition of protease activity at a concentration of 100 μM.
Setting [6] is: Hepatitis C virus, Huh-7, 72 h, read-out: Activity EC50 (μM) (EC50 luciferase readout), Huh-7 replicon cells, 72 h, single value, or second value of a pair x:y.

Where a name gives a salt, the structure may show the parent alone. Read-outs that look alike come from different tables or passages of the source.

T1 sequence (P26663 1658-1711): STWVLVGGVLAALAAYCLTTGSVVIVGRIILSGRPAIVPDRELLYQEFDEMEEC
T1 sequence (P26663 1027-1657): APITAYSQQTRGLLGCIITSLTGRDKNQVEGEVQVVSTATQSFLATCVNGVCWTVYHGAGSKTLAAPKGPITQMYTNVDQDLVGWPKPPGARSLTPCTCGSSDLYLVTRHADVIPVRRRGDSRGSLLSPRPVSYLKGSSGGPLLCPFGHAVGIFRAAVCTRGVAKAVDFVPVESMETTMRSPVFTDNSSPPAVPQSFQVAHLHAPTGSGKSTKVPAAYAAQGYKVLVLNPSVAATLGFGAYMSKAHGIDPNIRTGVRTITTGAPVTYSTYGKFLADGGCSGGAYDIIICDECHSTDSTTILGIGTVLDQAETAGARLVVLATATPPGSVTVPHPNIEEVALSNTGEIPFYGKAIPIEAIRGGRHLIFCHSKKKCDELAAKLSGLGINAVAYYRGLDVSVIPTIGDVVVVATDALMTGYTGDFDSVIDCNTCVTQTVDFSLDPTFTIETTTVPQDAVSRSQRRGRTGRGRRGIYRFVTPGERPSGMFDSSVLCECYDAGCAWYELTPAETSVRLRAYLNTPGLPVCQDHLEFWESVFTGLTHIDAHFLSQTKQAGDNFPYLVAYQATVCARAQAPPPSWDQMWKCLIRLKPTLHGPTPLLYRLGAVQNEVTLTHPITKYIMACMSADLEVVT

Regarding `CCC(NCC(C)O)c1ccc(F)c(Oc2ccccc2)c1F` (mixture of isomers) [Example 53, 1-[1-(2,4-Difluoro-3-phenoxy-phenyl)-propylamino]-propan-2-ol.hydrochloride], the IC50 in assay [1] (setting [3]) turned out to be 5000 nM. In assay [2] (setting [4]), the EC50 came to 26 µM. `N[C@H](c1ccc(F)c(Oc2ccccc2)c1F)[C@H]1CCOC1` (relative stereo) [Example 61, C-(2,4-Difluoro-3-phenoxy-phenyl)-C-(tetrahydrofuran-3-yl)-methylamine.hydrochloride] showed an IC50 in assay [1] (setting [5]) of 10000 to 150000 nM. Moreover, the EC50 in assay [2] (setting [4]) was over 30 µM.

For `N[C@@H](c1ccc(F)c(Oc2ccccc2)c1F)[C@H]1CCOC1` (relative stereo) [Example 62, C-(2,4-Difluoro-3-phenoxy-phenyl)—C-(tetrahydro-furan-3-yl)-methylamine.hydrochloride], the IC50 in assay [1] (setting [3]) is 7200 nM. Besides, the EC50 in assay [2] (setting [4]) was over 30 µM. On to `CC(CO)NC(c1ccc(F)c(Oc2ccccc2)c1F)C1CCNCC1` (single isomer, unassigned) [Example 75, 2-{[(2,4-Difluoro-3-phenoxy-phenyl)-piperidin-4-yl-methyl]-amino}-propan-1-ol.dihydrochloride], for which the IC50 in assay [1] (setting [3]) amounted to 3300 nM. Moreover, the EC50 in assay [2] (setting [4]) was determined as 4.8 µM. On to `CC(CO)NC(c1ccc(F)c(Oc2ccccc2)c1F)C1CCNCC1` (single isomer, unassigned) [Example 76, 2-{[(2,4-Difluoro-3-phenoxy-phenyl)-piperidin-4-yl-methyl]-amino}-propan-1-ol.dihydrochloride], for which, in assay [1] (setting [3]), the IC50 was 2900 nM. The EC50 in assay [2] (Huh-7 replicon cells, 72 h, single value, or second value of a pair x:y, read-out: Activity EC50 (μM) (EC50 luciferase readout)) was found to be 6 µM. As for `CC[C@H](N[C@H](C)CC(N)=O)c1ccc(Cl)c(Oc2ccccc2)c1F` (single isomer, unassigned) [Example 83], in assay [1] (setting [3]), the IC50 came to 6700 nM. Also, the EC50 in assay [2] (setting [4]) was 17 µM. Take `CC[C@@H](N[C@@H](C)c1ccc[nH]c1=O)c1ccc(Cl)c(Oc2ccccc2)c1F` (single isomer, unassigned) [Example 315]: the IC50 in assay [1] (setting [3]) is 3500 nM. For the same molecule, the EC50 in assay [2] (setting [4]) is over 10 µM. Take `CC(C)C(N)c1ccc(F)c(Oc2ccccc2)c1F` (stereo not shown) [Example 1, 1-(2,4-Difluoro-3-phenoxy-phenyl)-2-methyl-propylamine. hydrochloride]: in assay [1] (setting [3]), the IC50 is 2500 nM. Also, the EC50 in assay [2] (setting [4]) amounted to 15 µM.

In the case of `CC(C)CC(N)c1ccc(F)c(Oc2ccccc2)c1F` (stereo not shown) [Example 2], the IC50 in assay [1] (setting [3]) turned out to be 2200 nM. In assay [2] (setting [4]), the EC50 was found to be 2.4 µM.

As to `CCC(N)c1ccc(F)c(Oc2ccccc2)c1F` (stereo not shown) [Example 3, 1-(2,4-Difluoro-3-phenoxy-phenyl)-propylamine. hydrochloride], the IC50 in assay [1] (setting [3]) amounted to 2100 nM. Moreover, the EC50 in assay [2] (setting [4]) was found to be 22 µM.

Take `CC(N)c1ccc(F)c(Oc2ccccc2)c1F` (stereo not shown) [Example 4]: in assay [1] (setting [3]), the IC50 is 7000 nM. Moreover, the concentration for a half-maximal effect (EC50) in assay [2] (setting [4]) is 13 µM.

In the case of `CCC(N[C@H]1CC[C@H](N)CC1)c1ccc(F)c(Oc2ccccc2)c1F` (stereo partly drawn) [Example 5, Trans-N-[1′-(2,4-difluoro-3-phenoxy-phenyl)-propyl]-cyclohexane-1,4-diamine], the IC50 in assay [1] (setting [3]) was 2000 nM. Moreover, the EC50 in assay [2] (setting [4]) was 0.13 µM. The molecule `CCC(N[C@H]1CC[C@@H](N)CC1)c1ccc(F)c(Oc2ccccc2)c1F` (stereo partly drawn) [Example 6, cis-N-[1-(2,4-Difluoro-3-phenoxy-phenyl)-propyl]-cyclohexane-1,4-diamine dihydrochloride] returned an IC50 in assay [1] (setting [5]) of 10000 to 150000 nM. For the same molecule, the EC50 in assay [2] (setting [4]) was determined as 0.14 µM. Regarding `CCNC(=O)CNC(=O)C[C@H](C)N[C@H](CC)c1ccc(Cl)c(Oc2ccccc2)c1F` [Example 243], the EC50 in assay [2] (setting [4]) is 3.8 µM. In the case of `CC[C@H](NCC(N)=O)c1ccc(F)c(Oc2ccccc2)c1F` [Example 301], in assay [2] (setting [4]), the EC50 is 26 µM. Same read-out and setting: as for `CC[C@H](NCCC(=O)NO)c1ccc(F)c(Oc2ccccc2)c1F` [Example 302], the figure is 6.9 µM; as for `CC[C@@H](N[C@@H](C)CC(N)=O)c1ccc(Cl)c(Oc2ccc(Cl)cc2)c1F.Cl` [Example 400], 3 µM. In the case of `CC[C@@H](N[C@@H](C)CC(N)=O)c1ccc(Cl)c(Oc2ccc(N)cc2)c1F.Cl` [Example 404], the EC50 in assay [2] (setting [4]) was found to be 0.023 µM.

For `CC[C@@H](N[C@@H](C)CC(N)=O)c1ccc(Cl)c(Oc2ccc(NC(C)=O)cc2)c1F` [Example 405], in assay [2] (setting [4]), the EC50 amounted to 0.3 µM.

Regarding `CC[C@@H](N[C@@H](C)CC(N)=O)c1ccc(Cl)c(Oc2ccc(NC(=O)N(C)C)cc2)c1F.Cl` [Example 407], the EC50 in assay [2] (setting [4]) stood at 0.11 µM. For the molecule `CC[C@@H](N[C@@H](C)CC(N)=O)c1ccc(Cl)c(Oc2ccc3c(c2)OCCN3)c1F.Cl` [Example 409], in assay [2] (setting [4]), the EC50 was 0.02 µM.

For `CC[C@@H](N[C@@H](C)CC(N)=O)c1ccc(Cl)c(Oc2ccc3c(c2)OCCO3)c1F.Cl` [Example 410], the EC50 in assay [2] (setting [4]) came out at 0.31 µM. In the case of `CC[C@@H](N[C@@H](C)CC(N)=O)c1ccc(Cl)c(Oc2ccccn2)c1F.Cl` [Example 413], in assay [2] (setting [4]), the EC50 was 3 µM. For `CC[C@@H](N[C@@H](C)CC(N)=O)c1ccc(Cl)c(Oc2ccc(-c3ccn[nH]3)cc2)c1F.Cl` [Example 417], the EC50 in assay [2] (setting [4]) stood at 0.91 µM. For the molecule `CC[C@@H](N[C@@H](C)CC(N)=O)c1ccc(Cl)c(Oc2ccc(F)c(C(N)=O)c2)c1F.Cl` [Example 419], the EC50 in assay [2] (setting [4]) came out at 0.82 µM. With `CC[C@@H](N[C@@H](C)CC(N)=O)c1ccc(Cl)c(Oc2ccc(F)c(C(=O)NC)c2)c1F.Cl` [Example 421], the EC50 in assay [2] (setting [4]) was 0.4 µM. For `CC[C@@H](N[C@@H](C)CC(N)=O)c1ccc(Cl)c(Oc2ccc(F)c(C(=O)N3CCOCC3)c2)c1F.Cl` [Example 423], the EC50 in assay [2] (setting [4]) came out at 1.4 µM. On the same count and under the same terms, the same measure for `CC[C@@H](N[C@@H](C)CC(N)=O)c1ccc(Cl)c(Oc2ccc(F)c(C(=O)N(C)C)c2)c1F.Cl` [Example 425]: 0.35 µM.

Take `CC[C@@H](N[C@@H](C)CC(N)=O)c1ccc(Cl)c(Oc2cnc(N)cn2)c1F.Cl` [Example 429]: the EC50 in assay [2] (setting [4]) is 3 µM. For `CC[C@@H](N[C@@H](C)CC(N)=O)c1ccc(Cl)c(Oc2ncccn2)c1F.Cl` [Example 431], the EC50 in assay [2] (setting [4]) was over 3 µM.

On to `CC[C@@H](N[C@@H](C)CC(N)=O)c1ccc(Cl)c(Oc2ncc(N)cn2)c1F.Cl` [Example 433], for which the EC50 in assay [2] (setting [4]) turned out to be 1.6 µM.

`CC[C@@H](N[C@@H](C)CC(N)=O)c1ccc(Cl)c(Oc2nc3ccccc3s2)c1F.Cl` [Example 435]: the EC50 in assay [2] (setting [4]) stood at 3 µM.

Regarding `CC[C@@H](N[C@@H](C)CC(N)=O)c1ccc(Cl)c(Oc2nc3cnccc3s2)c1F.Cl` [Example 438], the EC50 in assay [2] (setting [4]) is over 3 µM. In the case of `CC[C@@H](N[C@@H](C)CC(N)=O)c1ccc(Cl)c(Oc2ccc(C(N)=O)cc2)c1F.Cl` [Example 444], the EC50 in assay [2] (setting [6]) turned out to be 0.82 µM. Regarding `C[C@@H](CC(N)=O)N[C@@H](c1ccc(Cl)c(Oc2ccc(N)nc2)c1F)C1CC1.Cl` [Example 454], the EC50 in assay [2] (setting [6]) amounted to 0.16 µM. Turning to `C[C@@H](CC(N)=O)N[C@@H](c1ccc(Cl)c(Oc2ccc(C(N)=O)nc2)c1F)C1CC1.Cl` [Example 456], the EC50 in assay [2] (setting [4]) was over 3 µM. As for `CC[C@@H](N[C@@H](C)CC(N)=O)c1ccc(Cl)c(Oc2ccc(NC(C)=O)nc2)c1Cl` [Example 458], the half-maximal effective concentration (EC50) in assay [2] (setting [4]) is 3.5 µM. For the molecule `C[C@@H](CC(N)=O)N[C@@H](c1ccc(Cl)c(Oc2ccccc2)c1F)C1CC1` [Example 459], in assay [2] (setting [4]), the EC50 came out at 0.63 µM. With `CC[C@@H](NC(C)(C)CC(N)=O)c1ccc(Cl)c(Oc2ccc(N)nc2)c1F` [Example 460, 3-{[(1R)-1-{3-[(6-aminopyridin-3-yl)oxy]-4-chloro-2-fluorophenyl}propyl]amino}-3-methylbutanamide hydrochloride (1:1)], the concentration for a half-maximal effect (EC50) in assay [2] (setting [4]) worked out at 0.13 µM.

Turning to `CC[C@@H](N[C@@H](C)CC(N)=O)c1ccc(Cl)c(Oc2ccccc2)c1C` [Example 468], in assay [2] (setting [4]), the EC50 was over 3 µM. Regarding `[2H]C([2H])([2H])C([2H])([2H])[C@@H](N[C@@H](C)CC(N)=O)c1ccc(Cl)c(Oc2ccccc2)c1F` [Example 472], the EC50 in assay [2] (setting [4]) was over 3 µM.

Consider `CC(C)(C)C#Cc1cc(N(C(=O)[C@H]2CC[C@H](C)CC2)[C@H]2CC[C@H](O)CC2)c(C(=O)O)s1` [VX-222, Lomibuvir, reference compound], for which the EC50 in assay [2] (Hepatitis C virus, Huh-7, replicon assay, set in line with previous observations, read-out: pre-determined EC50 set for the combination experiments) turned out to be 0.003 µM.

Broadly, the IC50 is the point on the concentration scale where inhibition reaches its midpoint. A word on the EC50: it is the concentration needed to bring the measured effect to its halfway point.
